Bounds are passed on as bounds.

The target in this assay is T1, human SK3 channel (hKCa0.2.3) (Homo sapiens, UniProt Q9UGI6).
T1 construct: expressed in transfected cells
Briefly: Automated patch clamping (QPatch whole-cell). In kind it is cell-based. As to conditions: HEK-293 cells stably expressing human SK3; free calcium 400 nM; normalized to inhibitory effect of N-methyl bicuculline. How it is done: Automated whole cell patch-clamp recordings were performed using a QPatch 16 HT system and single-hole Qplates (Biolin Scientific, Sophion, Denmark) on HEK-293 cells stably expressing the human SK3 channel (hKCa0.2.3). Cells were cultured and prepared for experiments using normal cell culturing procedures. A total of 4-5 million cells were used per experiment. The Qpatch automatically generates giga sealing, whole-cell formation, compound application and recording of current. hKCa2.3 currents were recorded in symmetrical K^+ solutions, with an intracellular solution consisting of in mM: KCl 108; KOH/EGTA (ethylene glycol-bis(2-aminoethylether)-N,N,N′,N′-tetraacetic acid) 31.25/10; CaCl2) 8.1; MgCl2 1.2; HEPES (2-[4-(2-hydroxyethyl)piperazin-1-yl]ethanesulfonic acid) 10; KOH 15, pH adjusted to pH=7.2 with HCl. The free calcium concentration was calculated to 400 nM. The extracellular solution consisted of in mM: KCl 150; CaCl2) 0.1; MgCl2 3; HEPES 10; Glucose 10, pH=7.4 with KOH. The cells were held at 0 mV and hKCa0.2.3 currents were elicited by a linear voltage ramp from −80 mV to +80 mV (200 ms in duration) applied every 5th second. The compound application protocol consisted of 12 recording periods lasting from 50-200 s: 1) Baseline recordings in extracellular solution; 2) Application of the positive control N-methyl bicuculline (100 μM), which is characterized by full efficacy, fast on- and off-rate; 3-4) Wash-out; 5-9) Increasing concentrations of test compound to establish an IC50 value; 10-11) Wash-out; 12) positive control with compound NS8593 (N-[(1R)-1,2,3,4-tetrahydro-1-naphthalenyl]-1H-benzimidazol-2-amine) (1 μM). Data were sampled at 10 kHz, 4th order Bessel filter, cut-off frequency 3 kHz. Currents were compensated for run-down. Potency was quantified as the concentration needed to inhibit half of the SK channel activity and reported as an IC50 value. All effects of compounds of the present invention as tested were normalized to the observed inhibitory effect of N-methyl bicuculline.
Background: The patch-clamp technique gives a direct electrical read-out from membranes.

The term IC50 denotes the concentration needed to halve the response being measured. With `CNC(=O)CC(Nc1nc2c(C)cccc2[nH]1)c1cccc(C(F)(F)F)c1` (centres unmarked) [Example 5, N-methyl-3-[(4-methyl-1H-1,3-benzodiazol-2-yl)amino]-3-[3-(trifluoromethyl)phenyl]propanamide], the IC50 is < 10 µM. The result for `CNC(=O)CC(Nc1nc2c(CO)cccc2[nH]1)c1cccc(SC(F)(F)F)c1` (centres unmarked) [Example 21, 3-{[4-(hydroxymethyl)-1H-1,3-benzodiazol-2-yl]amino}-N-methyl-3-{3-[(trifluoromethyl)sulfanyl]phenyl}propanamide] reads < 10 µM.

Take `CNC(=O)CC(Nc1nc2ccccc2[nH]1)c1cc(C)c(F)c(C)c1` (centres unmarked) [Example 9, 3-[(1H-1,3-benzodiazol-2-yl)amino]-3-(4-fluoro-3,5-dimethylphenyl)-N-methylpropanamide]: the IC50 is < 10 µM.

Regarding `CNC(=O)CC(Nc1nc2c(COC)cccc2[nH]1)c1cccc(C(F)(F)F)c1` (centres unmarked) [Example 19, 3-{[4-(methoxymethyl)-1H-1,3-benzodiazol-2-yl]amino}-N-methyl-3-[3-(trifluoromethyl)phenyl]propanamide], the IC50 was < 10 µM. The result for `CNC(=O)CC(Nc1nc2ccccc2[nH]1)c1cccc(SC)c1` (centres unmarked) [Example 12, 3-[(1H-1,3-benzodiazol-2-yl)amino]-N-methyl-3-[3-(methylsulfanyl)phenyl]propanamide] reads < 10 µM. The same measure for `CNC(=O)CC(Nc1nc2c(CCO)cccc2[nH]1)c1cccc(C(F)(F)F)c1` (centres unmarked) [Example 6, 3-{[4-(2-hydroxyethyl)-1H-1,3-benzodiazol-2-yl]amino}-N-methyl-3-[3-(trifluoromethyl)phenyl]propanamide]: < 100 µM; for `CNC(=O)C(C)(Nc1nc2ccccc2[nH]1)c1cccc(C(F)(F)F)c1` (single isomer, unassigned; (+)) [Example 26a, (+)-2-[(1H-1,3-benzodiazol-2-yl)amino]-N-methyl-2-[3-(trifluoromethyl)phenyl]propanamide]: < 10 µM.

In the case of `CNC(=O)C(C)(Nc1nc2ccccc2[nH]1)c1cccc(C(F)(F)F)c1` (centres unmarked) [Example 26, 2-[(1H-1,3-benzodiazol-2-yl)amino]-N-methyl-2-[3-(trifluoromethyl)phenyl]propanamide; trifluoroacetic acid], the 50% inhibitory concentration (IC50) is < 10 µM.

As to `CNC(=O)CC(Nc1nc2cc(OC(F)(F)F)ccc2[nH]1)c1cccc(C(F)(F)F)c1` (centres unmarked) [Example 18, N-methyl-3-{[5-(trifluoromethoxy)-1H-1,3-benzodiazol-2-yl]amino}-3-[3-(trifluoromethyl)phenyl]propanamide; trifluoroacetic acid], the IC50 is < 10 µM. The same measure for `O=C(NC1CC1)C(Nc1nc2ccccc2[nH]1)c1cccc(C(F)(F)F)c1` (centres unmarked) [Example 16, 2-[(1H-1,3-benzodiazol-2-yl)amino]-N-cyclopropyl-2-[3-(trifluoromethyl)phenyl]acetamide]: < 10 µM.

`CNC(=O)CC(Nc1nc2ccccc2[nH]1)c1cccc(OC(F)(F)F)c1` (centres unmarked) [Example 13, 3-[(1H-1,3-benzodiazol-2-yl)amino]-N-methyl-3-[3-(trifluoromethoxy)phenyl]propanamide]: the IC50 is < 10 µM. In the case of `CNC(=O)CC(Nc1nc2ccccc2[nH]1)c1cccc(C(=O)OC)c1` (centres unmarked) [Example 24, methyl 3-{1-[(1H-1,3-benzodiazol-2-yl)amino]-2-(methylcarbamoyl)ethyl}benzoate], the IC50 is < 10 µM.

With `CN(C)C(=O)C(Nc1nc2ccccc2[nH]1)c1cccc(C(F)(F)F)c1` (centres unmarked) [Example 1, 2-[(1H-1,3-benzodiazol-2-yl)amino]-N,N-dimethyl-2-[3-(trifluoromethyl)phenyl]acetamide], the IC50 is < 10 µM.

As to `CNC(=O)CC(Nc1nc2ccccc2[nH]1)c1cccc(C(F)(F)F)c1` (single isomer, unassigned; (-)) [Example 2a, (−)3-[(1H-1,3-benzodiazol-2-yl)amino]-N-methyl-3-[3(trifluoromethyl)phenyl]propanamide], the half-inhibitory concentration (IC50) is < 10 µM. The same measure for `CNC(=O)CC(Nc1nc2ccccc2[nH]1)c1cccc(C(F)(F)F)c1` (centres unmarked) [Example 2, 3-[(1H-1,3-benzodiazol-2-yl)amino]-N-methyl-3-[3(trifluoromethyl)phenyl]propanamide]: < 10 µM; for `CC(C)CNC(=O)C(Nc1nc2ccccc2[nH]1)c1cccc(C(F)(F)F)c1` (centres unmarked) [Example 15, 2-[(1H-1,3-benzodiazol-2-yl)amino]-N-(2-methylpropyl)-2-[3-(trifluoromethyl)phenyl]acetamide]: < 10 µM; for `Cc1c(F)ccc2[nH]c(NC(CC(N)=O)c3cccc(C(F)(F)F)c3)nc12` (centres unmarked) [Example 14, 3-[(5-fluoro-4-methyl-1H-1,3-benzodiazol-2-yl)amino]-3-[3-(trifluoromethyl)phenyl]propanamide]: < 10 µM. The result for `CNC(=O)CCC(Nc1nc2ccccc2[nH]1)c1cccc(C(F)(F)F)c1` (single isomer, unassigned; (-)) [Example 25a, (−)-4-[(1H-1,3-benzodiazol-2-yl)amino]-N-methyl-4-[3-(trifluoromethyl)phenyl]butanamide] reads < 10 µM. As for `CNC(=O)CC(Nc1nc2c(C)c(F)ccc2[nH]1)c1cccc(C(F)(F)F)c1` (centres unmarked) [Example 4, 3-[(5-fluoro-4-methyl-1H-1,3-benzodiazol-2-yl)amino]-N-methyl-3-[3-(trifluoromethyl)phenyl]propanamide], the IC50 is < 10 µM. The result for `CN(C)C(=O)C(Nc1nc2ccccc2[nH]1)c1cccc(C(F)(F)F)c1` (single isomer, unassigned; (-)) [Example 1a, (−)2-[(1H-1,3-benzodiazol-2-yl)amino]-N,N-dimethyl-2-[3-(trifluoromethyl)phenyl]acetamide] reads < 10 µM; that for `C=CCNC(=O)CC(Nc1nc2ccccc2[nH]1)c1cccc(C(F)(F)F)c1` (centres unmarked) [Example 3, 3-[(1H-1,3-benzodiazol-2-yl)amino]-N-(prop-2-en-1-yl)-3-[3-(trifluoromethyl)phenyl]propanamide], < 10 µM; that for `CNC(=O)C(Cc1cccc(C(F)(F)F)c1)Nc1nc2ccccc2[nH]1` (centres unmarked) [Example 8, 2-[(1H-1,3-benzodiazol-2-yl)amino]-N-methyl-3-[3-(trifluoromethyl)phenyl]propanamide], < 100 µM. The same measure for `CNC(=O)CC(Nc1nc2c(Cl)cccc2[nH]1)c1cccc(C(F)(F)F)c1` (centres unmarked) [Example 20, 3-[(4-chloro-1H-1,3-benzodiazol-2-yl)amino]-N-methyl-3-[3-(trifluoromethyl)phenyl]propanamide]: < 10 µM; for `CNC(=O)CC(Nc1nc2ccccc2[nH]1)c1ccc(Cl)c(Cl)c1` (centres unmarked) [Example 22, 3-[(1H-1,3-benzodiazol-2-yl)amino]-3-(3,4-dichlorophenyl)-N-methylpropanamide]: < 10 µM. Turning to `CNC(=O)CC(Nc1nc2cc(F)ccc2[nH]1)c1cccc(C(F)(F)F)c1` (centres unmarked) [Example 17, 3-[(5-fluoro-1H-1,3-benzodiazol-2-yl)amino]-N-methyl-3-[3-(trifluoromethyl)phenyl]propanamide], the IC50 is < 10 µM. `CNC(=O)CCC(Nc1nc2ccccc2[nH]1)c1cccc(C(F)(F)F)c1` (centres unmarked) [Example 25, 4-[(1H-1,3-benzodiazol-2-yl)amino]-N-methyl-4-[3-(trifluoromethyl)phenyl]butanamide]: the IC50 is < 10 µM. The same measure for `CNC(=O)CC(Nc1nc2ccccc2[nH]1)c1ccc(Cl)c(C)c1` (centres unmarked) [Example 10, 3-[(1H-1,3-benzodiazol-2-yl)amino]-3-(4-chloro-3-methylphenyl)-N-methylpropanamide]: < 10 µM. The result for `CON(C)C(=O)CC(Nc1nc2ccccc2[nH]1)c1cccc(C(F)(F)F)c1` (centres unmarked) [Example 11, 3-[(1H-1,3-benzodiazol-2-yl)amino]-N-methoxy-N-methyl-3-[3-(trifluoromethyl)phenyl]propanamide] reads < 10 µM; that for `COC(=O)C(Cc1cccc(C(F)(F)F)c1)Nc1nc2c(NC(C)=O)cccc2[nH]1` (centres unmarked) [Example 7, methyl 2-[(4-acetamido-1H-1,3-benzodiazol-2-yl)amino]-3-[3-(trifluoromethyl)phenyl]propanoate], < 10 µM.

These data come from patent publication US11098018B2, “Potassium channel inhibitors” (ACESION PHARMA ApS, priority 2017, dated 2021).
